According to PubChem BioAssay (NCI):
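1) Cells in 96-well plates. 2) Compound, 48 h, 5 concentrations. 3) Linear interpolation between surrounding doses. 4) Unreached endpoint = highest concentration. TGI denotes the concentration required for complete inhibition of growth.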

Legend:
Test in all cases: DTP human tumour cell line panel, 48 h
HT29 colon = test system: HT29 colon
MDA-N = test system: MDA-N
UACC-257 melanoma = test system: UACC-257 melanoma
MOLT-4 leukemia = test system: MOLT-4 leukemia
HOP-62 NSCLC = test system: HOP-62 NSCLC
SR leukemia = test system: SR leukemia
786-0 renal = test system: 786-0 renal
SNB-75 CNS = test system: SNB-75 CNS
CCRF-CEM leukemia = test system: CCRF-CEM leukemia
MDA-MB-435 = test system: MDA-MB-435
SK-MEL-5 melanoma = test system: SK-MEL-5 melanoma
DU-145 prostate = test system: DU-145 prostate
HCC-2998 colon = test system: HCC-2998 colon
K-562 leukemia = test system: K-562 leukemia
M14 melanoma = test system: M14 melanoma
MALME-3M melanoma = test system: MALME-3M melanoma
HCT-15 colon = test system: HCT-15 colon
KM12 colon = test system: KM12 colon
LOX IMVI melanoma = test system: LOX IMVI melanoma
SK-MEL-28 melanoma = test system: SK-MEL-28 melanoma
CAKI-1 renal = test system: CAKI-1 renal
MCF7 breast = test system: MCF7 breast
HL-60(TB) leukemia = test system: HL-60(TB) leukemia
SW-620 colon = test system: SW-620 colon
OVCAR-8 ovarian = test system: OVCAR-8 ovarian
SN12C renal = test system: SN12C renal
OVCAR-4 ovarian = test system: OVCAR-4 ovarian
RXF 393 renal = test system: RXF 393 renal
T-47D breast = test system: T-47D breast
SK-OV-3 ovarian = test system: SK-OV-3 ovarian
HOP-92 NSCLC = test system: HOP-92 NSCLC
UACC-62 melanoma = test system: UACC-62 melanoma
RPMI-8226 leukemia = test system: RPMI-8226 leukemia
SF-268 CNS = test system: SF-268 CNS
SF-295 CNS = test system: SF-295 CNS
IGROV1 ovarian = test system: IGROV1 ovarian
TK-10 renal = test system: TK-10 renal
COLO 205 colon = test system: COLO 205 colon
PC-3 prostate = test system: PC-3 prostate
NCI-H23 lung = test system: NCI-H23 lung
EKVX NSCLC = test system: EKVX NSCLC
A549 NSCLC = test system: A549 NSCLC
MDA-MB-231 breast = test system: MDA-MB-231 breast
ACHN renal = test system: ACHN renal
NCI-H522 lung = test system: NCI-H522 lung
SNB-19 CNS = test system: SNB-19 CNS
NCI/ADR-RES ovarian = test system: NCI/ADR-RES ovarian
UO-31 renal = test system: UO-31 renal
U251 CNS = test system: U251 CNS
NCI-H226 lung = test system: NCI-H226 lung
NCI-H460 lung = test system: NCI-H460 lung
OVCAR-3 ovarian = test system: OVCAR-3 ovarian
HCT-116 colon = test system: HCT-116 colon
BT-549 breast = test system: BT-549 breast
OVCAR-5 ovarian = test system: OVCAR-5 ovarian
A498 renal = test system: A498 renal
SF-539 CNS = test system: SF-539 CNS
HS 578T breast = test system: HS 578T breast
SK-MEL-2 melanoma = test system: SK-MEL-2 melanoma

Work on `COC(=O)CSc1[nH]c2nc(C)nc(Nc3ccccc3)c2c1C#N` yielded a TGI (HT29 colon) greater than 10 µM, a TGI (MDA-N) greater than 10 µM and a TGI (UACC-257 melanoma) greater than 10 µM. For the same compound, the TGI (MOLT-4 leukemia) was greater than 10 µM, the TGI (HOP-62 NSCLC) was greater than 10 µM and the TGI (SR leukemia) was greater than 10 µM. It also gave a TGI (786-0 renal) greater than 10 µM, a TGI (SNB-75 CNS) greater than 10 µM and a TGI (CCRF-CEM leukemia) greater than 10 µM. The TGI (MDA-MB-435) was greater than 10 µM, the TGI (SK-MEL-5 melanoma) was greater than 10 µM and the TGI (DU-145 prostate) was greater than 10 µM. For the same compound, the TGI (HCC-2998 colon) was greater than 10 µM, the TGI (K-562 leukemia) was greater than 10 µM and the TGI (M14 melanoma) was greater than 10 µM. For the same compound, the TGI (MALME-3M melanoma) was greater than 10 µM, the TGI (HCT-15 colon) was greater than 10 µM and the TGI (KM12 colon) was greater than 10 µM. For the same compound, the TGI (LOX IMVI melanoma) was greater than 10 µM, the TGI (SK-MEL-28 melanoma) was greater than 10 µM and the TGI (CAKI-1 renal) was greater than 10 µM. For the same compound, the TGI (MCF7 breast) was greater than 10 µM, the TGI (HL-60(TB) leukemia) was greater than 10 µM and the TGI (SW-620 colon) was greater than 10 µM. For the same compound, the TGI (OVCAR-8 ovarian) was greater than 10 µM, the TGI (SN12C renal) was greater than 10 µM and the TGI (OVCAR-4 ovarian) was greater than 10 µM. It also gave a TGI (RXF 393 renal) greater than 10 µM, a TGI (T-47D breast) greater than 10 µM and a TGI (SK-OV-3 ovarian) greater than 10 µM. The TGI (HOP-92 NSCLC) was greater than 10 µM, the TGI (UACC-62 melanoma) was greater than 10 µM and the TGI (RPMI-8226 leukemia) was greater than 10 µM. For the same compound, the TGI (SF-268 CNS) was greater than 10 µM, the TGI (SF-295 CNS) was greater than 10 µM and the TGI (IGROV1 ovarian) was greater than 10 µM. The TGI (TK-10 renal) was greater than 10 µM, the TGI (COLO 205 colon) was greater than 10 µM and the TGI (PC-3 prostate) was greater than 10 µM. The TGI (NCI-H23 lung) was greater than 10 µM, the TGI (EKVX NSCLC) was greater than 10 µM and the TGI (A549 NSCLC) was greater than 10 µM. It also gave a TGI (MDA-MB-231 breast) greater than 10 µM.
Work on `CC(C)C[C@H](NC(=O)[C@@H](Cc1cccc2ccccc12)NC(=O)N1CCOCC1)B(O)O` yielded a TGI (HT29 colon) of 8.86 µM, a TGI (ACHN renal) greater than 100 µM and a TGI (NCI-H522 lung) of 4.4 µM. For the same compound, the TGI (SNB-19 CNS) was greater than 100 µM, the TGI (UACC-257 melanoma) was 5.18 µM and the TGI (MOLT-4 leukemia) was greater than 100 µM. It also gave a TGI (HOP-62 NSCLC) of 33.3 µM, a TGI (SR leukemia) of 19.4 µM and a TGI (786-0 renal) of 19.7 µM. The TGI (SNB-75 CNS) was 18.8 µM, the TGI (CCRF-CEM leukemia) was 15.2 µM and the TGI (MDA-MB-435) was 3.79 µM. It also gave a TGI (SK-MEL-5 melanoma) of 9.24 µM, a TGI (NCI/ADR-RES ovarian) greater than 100 µM and a TGI (DU-145 prostate) of 29.7 µM. The TGI (HCC-2998 colon) was 4.47 µM, the TGI (K-562 leukemia) was 46.6 µM and the TGI (M14 melanoma) was 10.8 µM. For the same compound, the TGI (MALME-3M melanoma) was 2.72 µM, the TGI (UO-31 renal) was 41.5 µM and the TGI (HCT-15 colon) was 50.1 µM. The TGI (KM12 colon) was 20 µM, the TGI (LOX IMVI melanoma) was 5.98 µM and the TGI (U251 CNS) was 17.7 µM. For the same compound, the TGI (SK-MEL-28 melanoma) was 6.92 µM, the TGI (CAKI-1 renal) was 33.2 µM and the TGI (NCI-H226 lung) was 3.2 µM. It also gave a TGI (NCI-H460 lung) of 40.6 µM, a TGI (MCF7 breast) greater than 52.7 µM and a TGI (HL-60(TB) leukemia) greater than 24.6 µM. It also gave a TGI (SW-620 colon) of 12.2 µM, a TGI (OVCAR-3 ovarian) of 6.69 µM and a TGI (HCT-116 colon) of 5.94 µM. It also gave a TGI (OVCAR-8 ovarian) of 44.9 µM, a TGI (BT-549 breast) of 18.1 µM and a TGI (SN12C renal) of 20.4 µM. For the same compound, the TGI (OVCAR-4 ovarian) was greater than 57.8 µM, the TGI (OVCAR-5 ovarian) was 13.5 µM and the TGI (RXF 393 renal) was 6.8 µM. The TGI (T-47D breast) was 5.43 µM, the TGI (SK-OV-3 ovarian) was 40.6 µM and the TGI (HOP-92 NSCLC) was 8.55 µM. It also gave a TGI (UACC-62 melanoma) of 16 µM, a TGI (A498 renal) of 18.1 µM and a TGI (RPMI-8226 leukemia) of 17.4 µM. For the same compound, the TGI (SF-268 CNS) was 15.1 µM, the TGI (SF-539 CNS) was 4.61 µM and the TGI (SF-295 CNS) was 43.8 µM. It also gave a TGI (IGROV1 ovarian) of 23.5 µM, a TGI (TK-10 renal) of 25.4 µM and a TGI (HS 578T breast) greater than 25.6 µM. The TGI (COLO 205 colon) was 36.4 µM, the TGI (PC-3 prostate) was 24.9 µM and the TGI (NCI-H23 lung) was 8.94 µM. For the same compound, the TGI (EKVX NSCLC) was 47.6 µM, the TGI (A549 NSCLC) was 68 µM and the TGI (MDA-MB-231 breast) was 20.3 µM. The TGI (SK-MEL-2 melanoma) was 13.1 µM.
Compound `COC(=O)C1Cc2c([nH]c3ccccc23)-c2[nH]c3ccccc3c2CC(NC(C)=O)C(=O)NCC(=O)N1` (centres undefined) has a TGI (HT29 colon) greater than 100 µM, a TGI (MDA-N) greater than 100 µM and a TGI (ACHN renal) greater than 100 µM. For the same compound, the TGI (NCI-H522 lung) was greater than 100 µM, the TGI (SNB-19 CNS) was greater than 100 µM and the TGI (UACC-257 melanoma) was greater than 100 µM. For the same compound, the TGI (MOLT-4 leukemia) was greater than 100 µM, the TGI (HOP-62 NSCLC) was greater than 100 µM and the TGI (786-0 renal) was greater than 100 µM. It also gave a TGI (SNB-75 CNS) greater than 100 µM, a TGI (CCRF-CEM leukemia) greater than 100 µM and a TGI (MDA-MB-435) greater than 100 µM. The TGI (SK-MEL-5 melanoma) was greater than 100 µM, the TGI (NCI/ADR-RES ovarian) was greater than 100 µM and the TGI (DU-145 prostate) was greater than 100 µM. It also gave a TGI (HCC-2998 colon) greater than 100 µM, a TGI (K-562 leukemia) greater than 100 µM and a TGI (UO-31 renal) greater than 100 µM. It also gave a TGI (HCT-15 colon) greater than 100 µM, a TGI (KM12 colon) greater than 100 µM and a TGI (LOX IMVI melanoma) greater than 100 µM. The TGI (U251 CNS) was greater than 100 µM, the TGI (SK-MEL-28 melanoma) was greater than 100 µM and the TGI (CAKI-1 renal) was greater than 100 µM. The TGI (NCI-H226 lung) was greater than 100 µM, the TGI (NCI-H460 lung) was greater than 100 µM and the TGI (MCF7 breast) was greater than 100 µM. It also gave a TGI (SW-620 colon) greater than 100 µM, a TGI (OVCAR-3 ovarian) greater than 100 µM and a TGI (HCT-116 colon) greater than 100 µM. The TGI (OVCAR-8 ovarian) was greater than 100 µM, the TGI (SN12C renal) was greater than 100 µM and the TGI (OVCAR-4 ovarian) was greater than 100 µM. It also gave a TGI (OVCAR-5 ovarian) greater than 100 µM, a TGI (RXF 393 renal) greater than 100 µM and a TGI (T-47D breast) greater than 100 µM. For the same compound, the TGI (SK-OV-3 ovarian) was greater than 100 µM, the TGI (HOP-92 NSCLC) was greater than 100 µM and the TGI (UACC-62 melanoma) was greater than 100 µM. It also gave a TGI (RPMI-8226 leukemia) greater than 100 µM, a TGI (SF-268 CNS) greater than 100 µM and a TGI (SF-539 CNS) greater than 100 µM. It also gave a TGI (SF-295 CNS) greater than 100 µM, a TGI (IGROV1 ovarian) greater than 100 µM and a TGI (TK-10 renal) greater than 100 µM. The TGI (HS 578T breast) was greater than 100 µM, the TGI (COLO 205 colon) was greater than 100 µM and the TGI (PC-3 prostate) was greater than 100 µM. The TGI (NCI-H23 lung) was greater than 100 µM, the TGI (EKVX NSCLC) was greater than 100 µM and the TGI (A549 NSCLC) was greater than 100 µM. It also gave a TGI (MDA-MB-231 breast) greater than 100 µM and a TGI (SK-MEL-2 melanoma) greater than 100 µM.
